# Experimental data as given in ChEMBL document CHEMBL1201862, “PubChem BioAssay data set” (2004).
#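 Compound exposure: 48 hours, 5 concentrations, 96-well plates. The concentration for 50% growth inhibition is given as GI50.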 Calls of active or inactive are those of the source. No stated cut-off is given here; in the data, active = GI50 up to about 1.1 µM and inactive = higher.
# Key:
# Assay in all cases: NCI tumour cell line growth inhibition, 48 h
# NCI-H226 = system: NCI-H226
# A549 = system: A549
# SR = system: SR
# HOP-92 = system: HOP-92
# HCT-15 = system: HCT-15
# SN12C = system: SN12C
# BT-549 = system: BT-549
# 786-0 = system: 786-0
# NCI-H460 = system: NCI-H460
# K562 = system: K562
# DU-145 = system: DU-145
# NCI-H522 = system: NCI-H522
# UO-31 = system: UO-31
# CAKI-1 = system: CAKI-1
# EKVX = system: EKVX
# ACHN = system: ACHN
# NCI/ADR-RES = system: NCI/ADR-RES
# MCF7 = system: MCF7
# SF-539 = system: SF-539
# RPMI-8226 = system: RPMI-8226
SMILES,GI50 (NCI-H226),GI50 (A549),GI50 (SR),GI50 (HOP-92),GI50 (HCT-15) [µM],GI50 (SN12C),GI50 (BT-549),GI50 (786-0),GI50 (NCI-H460),GI50 (K562),GI50 (DU-145),GI50 (NCI-H522),GI50 (UO-31),GI50 (CAKI-1),GI50 (EKVX),GI50 (ACHN),GI50 (NCI/ADR-RES),GI50 (MCF7),GI50 (SF-539),GI50 (RPMI-8226)
O=C(C[N+]1(c2ccccc2)CCOCC1)c1ccccc1,> 100 µM (inactive),> 100 µM (inactive),34.8 µM (inactive),> 100 µM (inactive),> 100,> 100 µM (inactive),> 100 µM (inactive),60.5 µM (inactive),> 100 µM (inactive),40.9 µM (inactive),> 100 µM (inactive),45.7 µM (inactive),> 100 µM (inactive),> 100 µM (inactive),96.6 µM (inactive),> 100 µM (inactive),> 100 µM (inactive),,,
CCOC(=O)c1cccn1S(=O)(=O)c1cc(Cl)ccc1NC(=O)CC,,54.1 µM (inactive),> 10 µM (inactive),> 100 µM (inactive),44,> 100 µM (inactive),52.6 µM (inactive),57 µM (inactive),50.1 µM (inactive),51.8 µM (inactive),> 100 µM (inactive),18.5 µM (inactive),15.4 µM (inactive),> 100 µM (inactive),61.7 µM (inactive),> 100 µM (inactive),,> 100 µM (inactive),> 100 µM (inactive),75.9 µM (inactive)
COc1cc(OC)cc(C(=O)Cc2c(C(=O)c3ccccc3)c3ccccc3n2C(=O)c2ccccc2)c1,31.1 µM (inactive),25.3 µM (inactive),14.2 µM (inactive),3.78 µM (inactive),31.3,43.8 µM (inactive),,38.9 µM (inactive),15.5 µM (inactive),16.7 µM (inactive),,6 µM (inactive),24.4 µM (inactive),50.5 µM (inactive),55.2 µM (inactive),33 µM (inactive),,,30.2 µM (inactive),9.29 µM (inactive)
CCOC(=O)OC1(c2ccccc2)CCN(C)CC1,> 100 µM (inactive),> 100 µM (inactive),> 100 µM (inactive),> 100 µM (inactive),> 100,> 100 µM (inactive),,> 100 µM (inactive),> 100 µM (inactive),> 100 µM (inactive),> 100 µM (inactive),> 100 µM (inactive),> 100 µM (inactive),> 100 µM (inactive),> 100 µM (inactive),> 100 µM (inactive),> 100 µM (inactive),> 100 µM (inactive),> 100 µM (inactive),> 100 µM (inactive)
Nc1ccn(C2OC(COP(=O)(O)OCC3OC(n4cc(F)c(=O)[nH]c4=O)CC3O)C(O)C2O)c(=O)n1 (centres undefined),> 22.9 µM (inactive),0.0244 µM (active),< 0.01 µM (active),38 µM (inactive),5.75,3.05 µM (inactive),> 37.6 µM (inactive),1.33 µM (inactive),< 0.01 µM (active),> 100 µM (inactive),0.0828 µM (active),14.6 µM (inactive),0.339 µM (active),0.508 µM (active),> 100 µM (inactive),0.0447 µM (active),9.23 µM (inactive),,< 0.0439 µM (active),
C[N+]1=c2c3cccc4cccc(c(=O)n2CC1)c43,13.1 µM (inactive),22.4 µM (inactive),2.77 µM (inactive),24.7 µM (inactive),22,18.1 µM (inactive),,25.8 µM (inactive),11.5 µM (inactive),19 µM (inactive),,11.4 µM (inactive),12.3 µM (inactive),23.1 µM (inactive),29.4 µM (inactive),12.5 µM (inactive),,,14.6 µM (inactive),23.9 µM (inactive)
NS(=O)(=O)c1ccc(NC(=O)COC(=O)c2cccc3c(=O)c4ccccc4[nH]c23)cc1,19.6 µM (inactive),46.9 µM (inactive),4.03 µM (inactive),16.5 µM (inactive),53.5,24 µM (inactive),,19.2 µM (inactive),33.8 µM (inactive),> 100 µM (inactive),,12.3 µM (inactive),23.3 µM (inactive),> 52.5 µM (inactive),38.2 µM (inactive),26.5 µM (inactive),,,16.3 µM (inactive),> 100 µM (inactive)
O=S(=O)(O)c1ccc2c(/N=N/c3ccc(Cl)cc3)c(O)ccc2c1,,> 100 µM (inactive),,> 100 µM (inactive),> 100,> 100 µM (inactive),> 100 µM (inactive),> 100 µM (inactive),,> 100 µM (inactive),> 100 µM (inactive),> 100 µM (inactive),> 100 µM (inactive),> 100 µM (inactive),> 100 µM (inactive),> 100 µM (inactive),> 100 µM (inactive),,,> 100 µM (inactive)
CSCCC(NC(=O)Cc1ccc(C(=O)c2ccccc2)cc1)C(=O)N1CCN(CCCCN2c3ccccc3Sc3cc(N=[N+]=[N-])ccc32)CC1 (centres undefined),78.2 µM (inactive),,,> 100 µM (inactive),> 100,> 100 µM (inactive),> 100 µM (inactive),> 100 µM (inactive),> 100 µM (inactive),> 100 µM (inactive),47 µM (inactive),92 µM (inactive),34.8 µM (inactive),> 100 µM (inactive),> 100 µM (inactive),> 100 µM (inactive),,73.3 µM (inactive),,68.1 µM (inactive)
N#CC1=C(Nc2ccccc2)SC=C(c2ccccc2)N=C1NCc1ccccc1,,> 100 µM (inactive),0.984 µM (active),,> 100,> 100 µM (inactive),,> 100 µM (inactive),,24.9 µM (inactive),> 100 µM (inactive),53.8 µM (inactive),71 µM (inactive),> 100 µM (inactive),,> 100 µM (inactive),> 100 µM (inactive),> 100 µM (inactive),> 100 µM (inactive),18.7 µM (inactive)
CC(C)CN(CC(C)C)C(=O)C1CCCC[C@@H]1C(=O)O (some centres undefined),> 100 µM (inactive),> 100 µM (inactive),> 100 µM (inactive),> 100 µM (inactive),> 100,> 100 µM (inactive),,> 100 µM (inactive),> 100 µM (inactive),> 100 µM (inactive),,> 100 µM (inactive),> 100 µM (inactive),> 100 µM (inactive),> 100 µM (inactive),> 100 µM (inactive),,,> 100 µM (inactive),> 100 µM (inactive)
COc1ccc2c(c1)CN1C(=N2)CSC1c1cc([N+](=O)[O-])ccc1Cl (centres undefined),42 µM (inactive),33.2 µM (inactive),33.8 µM (inactive),37.4 µM (inactive),30.6,65.6 µM (inactive),22.5 µM (inactive),37.9 µM (inactive),31.9 µM (inactive),10.8 µM (inactive),,32.3 µM (inactive),41.1 µM (inactive),27.3 µM (inactive),23.6 µM (inactive),44.7 µM (inactive),25.1 µM (inactive),28.2 µM (inactive),28.5 µM (inactive),21 µM (inactive)
Clc1ccc(OCc2nn3c(CCc4nnc5sc(COc6ccc(Cl)cc6)nn45)nnc3s2)cc1,30.3 µM (inactive),,,,18.2,,,26.4 µM (inactive),18.4 µM (inactive),9.4 µM (inactive),19.1 µM (inactive),5.62 µM (inactive),1.53 µM (inactive),3.35 µM (inactive),27.7 µM (inactive),15.1 µM (inactive),8.15 µM (inactive),21.4 µM (inactive),27.9 µM (inactive),17.3 µM (inactive)
N#C[BH2-][n+]1cn(C2CC(O)C(COP(=O)(O)OC3CC(n4ccc(N)nc4=O)OC3CO)O2)c2nc(N)[nH]c(=O)c21 (centres undefined),> 100 µM (inactive),> 100 µM (inactive),> 100 µM (inactive),> 100 µM (inactive),> 100,> 100 µM (inactive),,> 100 µM (inactive),> 100 µM (inactive),10 µM (inactive),> 100 µM (inactive),> 100 µM (inactive),> 100 µM (inactive),> 100 µM (inactive),> 100 µM (inactive),> 100 µM (inactive),> 100 µM (inactive),> 100 µM (inactive),> 100 µM (inactive),> 100 µM (inactive)
[N-]=[N+]=CC(=O)OCC1NC(=O)C(COC(=O)C=[N+]=[N-])NC1=O (centres undefined),> 100 µM (inactive),> 100 µM (inactive),> 100 µM (inactive),> 100 µM (inactive),> 100,> 100 µM (inactive),,> 100 µM (inactive),> 100 µM (inactive),> 100 µM (inactive),> 100 µM (inactive),,> 100 µM (inactive),> 100 µM (inactive),> 100 µM (inactive),> 100 µM (inactive),> 100 µM (inactive),> 100 µM (inactive),> 100 µM (inactive),> 100 µM (inactive)
Nc1nc(-c2ccccc2)cc(-c2cc(Cl)ccc2O)n1,> 100 µM (inactive),42.7 µM (inactive),> 100 µM (inactive),> 100 µM (inactive),> 100,> 100 µM (inactive),,55 µM (inactive),43.9 µM (inactive),> 100 µM (inactive),,25.9 µM (inactive),39.9 µM (inactive),74.5 µM (inactive),46.9 µM (inactive),25.6 µM (inactive),,,31.6 µM (inactive),> 100 µM (inactive)
